Among the data in patent US6362370B1, “Wood preservatives” (Lonza AG, priority 1996, dated 2002) are Penetration depth and Service life values, retold here.

Some results are limits rather than exact numbers.

Data set [1] is described as follows: Penetration depth in sapwood blocks after immersion in aqueous QAC solution. The class given is physicochemical. As to conditions: sapwood blocks 2.5 cm×5.0 cm×12 cm, immersion in 5% strength aqueous solution, 24 hours at 20° C. The procedure: Fine sapwood blocks of dimensions 2.5 cm×5.0 cm×12 cm were impregnated with the QAC shown in the table by immersion in an aqueous solution of in each case 5% strength. The immersion time was a standard 24 hours (at 20° C.).

The subject of data set [2] is fungus-infested soil (forest soil). The experiment in a line: Soil burying method according to Schwammkeller: service life of impregnated beechwood bars. To be noted: beechwood bars 1 cm×1 cm×40 cm, immersion in 0.5% strength solution for 24 hours, buried in fungus-infested soil, time until flexural breaking strength has fallen to 25% of the initial value. As for the experimental part: Bars of beechwood (1 cm×1 cm×40 cm) were impregnated by immersion in a 0.5% strength solution of the SAC for 24 hours and then tested by the soil burying method according to Schwammkeller. For this, treated and untreated timbers were buried in fungus-infested soil (forest soil). The service life here is defined as the time after which the flexural breaking strength has fallen to 25% of the initial value of (untreated) comparison timbers of the same dimensions and type of wood.

With “N,N-didecyl-N-methyl-N-(polyoxyethyl)ammonium lactate [Example 7]”, the Penetration depth in data set [1] is 7-8 mm. In data set [2], this substance came in with a Service life above 9 months. Consider “N,N-dimethyl-N-benzyl-N-(coconut alkyl)ammonium [Example 5]”, for which the Penetration depth in data set [1] is 6-8 mm. In addition, in data set [2] (listed as 10), the Service life was above 9 months. Take “N,N-didecyl-N-methyl-N-(polyoxyethyl)ammonium hydroxyacetate [Example 8]”: in data set [1], the Penetration depth is on record as 7-10 mm. Take “N,N-dimethyl-N-benzyl-N-(coconut alkyl)ammonium [Example V1, reference compound]”: the Penetration depth in data set [1] is 1-3 mm. Moreover, the Service life in data set [2] (listed as V5) turned out to be 3 months.

On to “N,N-didecyl-N-methyl-N-(polyoxyethyl)ammonium [Example V3, reference compound]”, for which the Penetration depth in data set [1] is 2-3 mm. This substance gave a Service life in data set [2] of 4 months.

“N,N-dimethyl-N-benzyl-N-(coconut alkyl)ammonium [Example V2, reference compound]”: in data set [1], the Penetration depth is listed as 2-3 mm. Take “N,N-didecyl-N-methyl-N-(polyoxyethyl)ammonium [Example 9]”: the Penetration depth in data set [1] is reported as 6-8 mm. “N,N-dimethyl-N-benzyl-N-(coconut alkyl)ammonium [Example 6]”: the Penetration depth in data set [1] is reported as 7-8 mm.

On to “N,N-didecyl-N-methyl-N-(polyoxyethyl)ammonium [Example V4, reference compound]”, for which, in data set [1], the Penetration depth is 3-4 mm.
